Measured values published in patent publication US20160067272A1, “METHODS FOR TREATING IMMUNE DISEASES” (priority 2013, published 2016).

Columns and labels:
Human nTregs = assay: Human nTreg conversion into IL-17A producing cells; type: cell-based
Experimental: Several discrepancies have been reported for mechanisms promoting Th17 cell development in mice and human^15. […] In addition, it has been shown that IL-2 inhibits Th17 development^16. In contrast, human Th17 differentiation requires IL-1β and IL-6 and can be inhibited by TFG-β and IL-2^34. […] Therefore, it was tested whether NAD^+ was a universal molecule that was able to enhance nTreg conversion into Th17 cells in human and mice as well. Human nTregs were isolated and cultured in presence of increasing NAD^− concentrations and IL-2. […] Of note, human nTregs conversion into IL-17A^+ producing cells remained CD4^+CD25^+.
For isolation of human Treg cells, peripheral blood mononuclear cells were obtained from young healthy volunteers using density gradient centrifugation with Ficoll-Paque (STEMCELL TECHNOLOGIES, Vancouver, BC, Canada). Non-CD4^+ T cells were then depleted using biotin-conjugated monoclonal anti-human antibodies against CD8, CD14, CD15, CD16, CD19, CD36, CD56, CD123, TCRγ/δ, CD235a (Glycophorin A) and anti-biotin magnetic beads (Miltenyi Biotec). […]
For cultivation of human Treg cells, recombinant human IL-2 (EBIOSCIENCE) and superparamagnetic beads coupled with human α-CD3 and α-CD28 (LIFE TECHNOLOGIES, Carlsbad, Calif.) were used. Cells were cultured during 10 days and analyzed by flow cytometry.

naïve CD4+ T cells [1] = assay: Naïve CD4+ T cell differentiation under Th17 polarizing conditions; type: cell-based, mouse
Excerpt: To elucidate the role of NAD^+ on CD4^− T cell differentiations in Th17 polarizing conditions, isolated naïve CD4^+ T cells were activated with anti-CD3/CD28 antibodies in the presence of recombinant TGFβ, IL-6 and anti-IL-4, anti-IL-12, and anti-IFNγ antibodies. […] Of note, expression of the pro-inflammatory cytokine TNF-α was inhibited in presence of NAD^+ (FIG. 1E).
(§1) Single-cell leukocyte suspensions were obtained from spleens from 8-10 week old DBA mice and CD4^− T cells were isolated by negative selection using a CD4^+ T cell isolation kit (MILTENYI BIOTEC, Bergisch Gladbach, Germany). Cells were further sorted using α-CD4-PE (EBIOSCIENCE, San Diego, Calif.) and purities of CD4^+ T cells after isolation were >98%.
(§2) All recombinant cytokines and antibodies were purchased from EBIOSCIENCE except recombinant TGF-β cytokine (R&D SYSTEMS, Minneapolis, Minn.). After 96 hrs of culture supernatants and cells were collected and analyzed by ELISA and flow cytometry, respectively.
(§3) Fluorescently labeled anti-mouse α-CD4 (GK1.5), α-CD25 (PC61), α-IFN-γ (XMG1.2) and unlabeled α-CD16/CD32 (2.4G2) antibodies were obtained from BD BIOSCIENCES (San Jose, Calif.). Fluorescently labeled anti-mouse α-IL-4 (FJK-16s), α-IL-10 (JES5-16E3), α-IL-17A (eBio17B7), and anti-TGFβ (TW7-16B4) were obtained from eBIOSCIENCE (San Diego, Calif.). Intracellular staining for IL-4, IL-10, IL-17A, IFNγ and TGFβ was performed according to manufacturers' protocols. Splenocytes were re-stimulated in complete media (RPMI media containing 10% FCS, 1% L-Glutamine, 1% Penicillin/Streptomycin; all Bio Whittaker, Walkersville, Md.) for 4 hours at 37° C. with ionomycin, phorbol 12-myristate 13-acetate and Brefelding A (EBIOSCIENCE). Cells were fixed and permeabilized using CYTOFIX/CYTOPERM solution (BD BIOSCIENCES). Flow cytometry measurements of single-cell suspensions were performed on a FACSCalibur using standard procedures and data were analyzed using FLOWJO software (TREE STAR, Ashland, Oreg.).

[2] = system: C57Bl/6 mice, OVA-induced allergy; assay: Allergic mouse model (ovalbumin); type: in vivo
Experimental: FIGS. 20A-20C depicts data from an experiment where allergy was induced in mice (C57B1/6) with intraperitoneal injections of OVA at day 1, 7, 14 and 21. Mice were treated with OVA or a placebo solution (PBS). […] NAD+ can therefore be used in chronic inflammation and allergy such as chronic obstructive pulmonary disease and atopic disorders.
The top panel of the figure is a schematic depicting the experimental protocol.
It is understood in a clinical setting that immunosuppressants are unable to specifically target activated/memory CD4+ T cells. Thus, the inventors next investigated the specificity of NAD+ using an allergic mouse model consisting of several intraperitoneal (i.p.) injections of ovalbumin (OVA) with Alumn. As a control, a group of mice received a placebo solution (PBS). In addition, to assess the specific effect of NAD+ on CD4+CD44^highCD62L^high activated/memory T cells, a group of mice received OVA followed by NAD+ injection.

naïve CD4+ T cells [3] = assay: Naïve CD4+ T cell differentiation under iTreg polarizing conditions; type: cell-based, mouse
Excerpt: Next, it was investigated whether NAD^+ modulates CD4^+ T differentiation under iTreg polarizing conditions. Isolated naïve CD4^+ T cells were activated with anti-CD3/CD28 antibodies in presence of recombinant TGFβ and IL-2 cytokines and blocking anti-IL-4, anti-IL-12 and anti-IFNγ antibodies.
as §1, §2, §3

CD4+CD25+ nTregs = assay: Functional in-vitro Treg cell assay (flow cytometry, ELISA, real-time PCR); type: cell-based, mouse
[4] = OVA i.p. day 1, 7, 14 and 21, with NAD+
[5] = nTregs with NAD+, 24 hrs of culture
[6] = nTregs with NAD+, after 4 days of culture
[7] = nTregs, increasing NAD+, 96 hrs, real-time PCR and ELISA

For `NC(=O)c1ccc[n+]([C@@H]2O[C@H](COP(=O)([O-])OP(=O)(O)OC[C@H]3O[C@@H](n4cnc5c(N)ncnc54)[C@H](O)[C@@H]3O)[C@@H](O)[C@H]2O)c1` [NAD+, nicotinamide adenine dinucleotide], the IL-17A cytokine production (Human nTregs; increasing NAD+ and IL-2, ELISA) was “enhance”, the “number of IL-17A+ cells” value (Human nTregs; increasing NAD+ and IL-2, flow cytometry) was “increased” and the IL-10 cytokine production (naïve CD4+ T cells [1]; ELISA) was “reduced”. For the same compound, the IL-17 cytokine production (naïve CD4+ T cells [1]; ELISA) was “did not affect”, the TNF-α expression (naïve CD4+ T cells [1]; ELISA) was “inhibited” and the “CD4+IL-17A+ cells” value (naïve CD4+ T cells [1]; flow cytometry) was “no changes”. The “CD4+CD44highCD62Lhigh activated/memory T cell frequency” value ([2]; OVA followed by NAD+ injection, after 21 days) was “targets specifically”, the “frequencies of effector T cells induced by the antigen” value [2, 4] was “reduces specifically” and the “frequencies of mature B cells induced by the antigen” value [2, 4] was “reduces specifically”. For the same compound, the “amount of TGFβ” value (naïve CD4+ T cells [3]) was “reduced amount”, the IL-6 production (naïve CD4+ T cells [3]; ELISA) was “remained unchanged” and the IL-10 secretion (naïve CD4+ T cells [3]; ELISA) was “reduced”. The IL-17A cytokine production (naïve CD4+ T cells [3]; ELISA) was “increased”, the TNF-α production (naïve CD4+ T cells [3]; ELISA) was “inhibited” and the “frequency of CD4+IL10+ cells” value (naïve CD4+ T cells [3]; flow cytometry) was “robust decreased frequency”. For the same compound, the “frequency of CD4+IL17A+ cells” value (naïve CD4+ T cells [3]; flow cytometry) was “increased frequency”, the “number of CD4+TGFβ+IL-10+ cells” value (naïve CD4+ T cells [3]; flow cytometry) was “decreased number” and the “cells able to produce IL-17A” value (CD4+CD25+ nTregs; 250 μM NAD+, 96 hrs of culture) was “more than 16%”. The nTregs apoptosis (CD4+CD25+ nTregs; Annexin V, increasing NAD+) was “induced”, the “proliferation of CD4+CD25−IL-17A+Foxp3+ cells (CFSE)” value (CD4+CD25+ nTregs; NAD+, dose dependent manner, no exogenous IL-23) was “able to proliferate” and the “frequencies of CD4+CD25+FoxP3+ cells” value (CD4+CD25+ nTregs; increased NAD+ concentrations, IL-2, no TGFβ/IL-6) was “reduced”. The “apoptosis of CD4+CD25−IL-17A+Foxp3+ cells (annexin V)” value (CD4+CD25+ nTregs; increasing NAD+, 48 and 96 hrs) was “did not become apoptotic”, the IL-17A cytokine production (CD4+CD25+ nTregs; nTregs from STAT3−/− mice vs wild type, with NAD+, 96 hrs, ELISA) was “reduced” and the “frequency of IL-17A+ cells” value (CD4+CD25+ nTregs; nTregs from STAT3−/− mice vs wild type, with NAD+, 96 hrs, flow cytometry) was “significant decreased, but not complete”. For the same compound, the “Foxp3 mRNA level” value (CD4+CD25+ nTregs; [5]) was “significantly increased”, the GATA3 expression level (CD4+CD25+ nTregs; [5]) was “remained unchanged” and the “RORγt mRNA level” value (CD4+CD25+ nTregs; [5]) was greater than 10 fold. For the same compound, the “STAT3 mRNA level” value (CD4+CD25+ nTregs; [5]) was greater than 10 fold, the STAT5 expression level (CD4+CD25+ nTregs; [5]) was “remained unchanged” and the Tbx21 expression level (CD4+CD25+ nTregs; [5]) was “remained unchanged”. The “Foxp3 mRNA level” value (CD4+CD25+ nTregs; [6]) was “remained significantly increased”, the “GATA-3 mRNA level” value (CD4+CD25+ nTregs; [6]) was “decreased significantly” and the “RORγt mRNA level” value (CD4+CD25+ nTregs; [6]) was “remained significantly increased”. For the same compound, the “STAT3 mRNA level” value (CD4+CD25+ nTregs; [6]) was “remained significantly increased”, the “STAT5 mRNA level” value (CD4+CD25+ nTregs; [6]) was “decreased significantly” and the “Tbx21 mRNA level” value (CD4+CD25+ nTregs; [6]) was “decreased significantly”. The “IFNγ mRNA and cytokine levels” value (CD4+CD25+ nTregs; [7]) was “decreased in a dose dependent manner”, the “IL-4 mRNA and cytokine levels” value (CD4+CD25+ nTregs; [7]) was “decreased in a dose dependent manner” and the “IL-10 mRNA and cytokine levels” value (CD4+CD25+ nTregs; [7]) was “decreased dramatically”. The “IL-17A mRNA and protein levels” value (CD4+CD25+ nTregs; [7]) was “increased in a dose dependent manner” and the “TGFβ mRNA and cytokine levels” value (CD4+CD25+ nTregs; [7]) was “decreased dramatically”.
